Test results taken from patent US12365664B2, “Small molecule inhibitors of SRC tyrosine kinase” (Dana-Farber Cancer Institute, Inc., priority 2019, dated 2025).

Key:
[1] = biological target: SRC (Homo sapiens (Human), UniProt P12931); test: SelectScreen Kinase Profiling Services commercial assay (ThermoFisher), SRC; type: biochemical
[2] = biological target: YES1 (Homo sapiens (Human), UniProt P07947); test: SelectScreen Kinase Profiling Services commercial assay (ThermoFisher), YES1; type: biochemical
Chain of YES1 (P07947 whole entry): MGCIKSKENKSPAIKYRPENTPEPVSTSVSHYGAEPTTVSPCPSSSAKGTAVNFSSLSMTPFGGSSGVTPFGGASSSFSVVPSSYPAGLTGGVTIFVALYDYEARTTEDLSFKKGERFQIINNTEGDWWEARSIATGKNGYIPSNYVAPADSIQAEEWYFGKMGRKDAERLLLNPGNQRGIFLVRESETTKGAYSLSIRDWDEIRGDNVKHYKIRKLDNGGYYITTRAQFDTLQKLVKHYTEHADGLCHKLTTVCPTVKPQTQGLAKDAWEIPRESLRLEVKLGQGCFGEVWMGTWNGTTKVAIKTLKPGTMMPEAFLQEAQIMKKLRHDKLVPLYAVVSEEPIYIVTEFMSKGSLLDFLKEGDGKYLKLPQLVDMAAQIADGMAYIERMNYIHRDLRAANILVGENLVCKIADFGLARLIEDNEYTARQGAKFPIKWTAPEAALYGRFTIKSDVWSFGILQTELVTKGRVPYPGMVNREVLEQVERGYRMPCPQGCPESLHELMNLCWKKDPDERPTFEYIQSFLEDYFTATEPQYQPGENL

Chain of SRC (P12931 whole entry): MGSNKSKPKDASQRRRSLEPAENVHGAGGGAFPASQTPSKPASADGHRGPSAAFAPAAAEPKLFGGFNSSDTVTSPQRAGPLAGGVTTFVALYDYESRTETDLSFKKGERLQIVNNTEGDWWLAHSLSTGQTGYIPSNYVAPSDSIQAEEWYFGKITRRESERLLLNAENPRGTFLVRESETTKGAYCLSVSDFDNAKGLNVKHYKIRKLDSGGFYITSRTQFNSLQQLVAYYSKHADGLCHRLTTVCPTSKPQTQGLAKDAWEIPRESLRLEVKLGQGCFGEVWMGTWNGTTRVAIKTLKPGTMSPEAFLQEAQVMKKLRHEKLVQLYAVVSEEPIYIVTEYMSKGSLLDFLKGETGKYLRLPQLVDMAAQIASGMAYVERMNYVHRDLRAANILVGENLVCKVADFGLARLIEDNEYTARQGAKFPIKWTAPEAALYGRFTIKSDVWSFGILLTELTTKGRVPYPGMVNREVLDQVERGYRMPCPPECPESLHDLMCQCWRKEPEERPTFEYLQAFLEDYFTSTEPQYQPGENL

Row | SMILES | IC50 [1] [nM] | IC50 [2] [nM]
1 | C=CC(=O)Nc1ccccc1Nc1nc(Nc2ccc(N3CCN(C)CC3)cc2)ncc1CC [Compound 2, N-{2-[(5-ethyl-2-{[4-(4-methylpiperazin-1-yl)phenyl]amino}pyrimidin-4-yl)amino]phenyl}prop-2-enamide] | 1 to 10 | 1 to 10
2 | C=CC(=O)Nc1ccc(C)cc1Nc1nc(Nc2ccc(N3CCN(C)CC3)cc2)ncc1Cl [Compound 32, N-{2-[(5-chloro-2-{[4-(4-methylpiperazin-1-yl)phenyl]amino}pyrimidin-4-yl)amino]-4-methylphenyl}prop-2-enamide] | 10 to 100 | 1 to 10
3 | C=CC(=O)Nc1cccc(CNc2nc(Nc3ccc(N4CCN(C)CC4)cc3)ncc2C(=O)Nc2c(C)cccc2Cl)c1 [Compound 49] | 10 to 100 | 
4 | C=CC(=O)Nc1cccc(C)c1Nc1nc(Nc2ccc(N3CCN(C)CC3)cc2)ncc1Cl [Compound 31, N-{2-[(5-chloro-2-{[4-(4-methylpiperazin-1-yl)phenyl]amino}pyrimidin-4-yl)amino]-3-methylphenyl}prop-2-enamide] | 1000 to 10000 | 100 to 1000
5 | C=CC(=O)Nc1ccc(CNc2nc(Nc3ccc(N4CCN(C)CC4)cc3)ncc2C(=O)Nc2c(C)cccc2Cl)cc1 [Compound 51] | 10 to 100 | 
6 | C=CC(=O)Nc1c(F)cccc1Nc1nc(Nc2ccc(N3CCN(C)CC3)cc2)ncc1Cl [Compound 39, N-{2-[(5-chloro-2-{[4-(4-methylpiperazin-1-yl)phenyl]amino}pyrimidin-4-yl)amino]-6-fluorophenyl}prop-2-enamide] | 1 to 10 | 
7 | C=CC(=O)Nc1ccccc1Nc1nc(Nc2ccc(N3CCN(C)CC3)cc2)nc2sccc12 [Compound 14, N-{2-[(2-{[4-(4-methylpiperazin-1-yl)phenyl]amino}thieno[2,3-d]pyrimidin-4-yl)amino]phenyl}prop-2-enamide] | 100 to 1000 | 10 to 100
8 | C=CC(=O)Nc1ccccc1Nc1nc(Nc2ccc(N3CCN(C)CC3)cc2)ncc1OCc1c(C)cccc1Cl [Compound 17, N-(2-((5-((2-chloro-6-methylbenzyl)oxy)-2-((4-(4-methylpiperazin-1-yl)phenyl)amino)pyrimidin-4-yl)amino)phenyl)acrylamide] | 1 to 10 | 
9 | C=CC(=O)Nc1ccccc1Nc1nc(Nc2ccc(N3CCN(C)CC3)cc2)ncc1C [Compound 4, N-{2-[(5-methyl-2-{[4-(4-methylpiperazin-1-yl)phenyl]amino}pyrimidin-4-yl)amino]phenyl}prop-2-enamide] | 1 to 10 | 1 to 10
10 | C=CC(=O)Nc1ccccc1Nc1nc(Nc2ccc(N3CCN(C)CC3)cc2)ncc1-c1ccc(OC)nc1 [Compound 9, N-(2-((5-(6-methoxypyridin-3-yl)-2-((4-(4-methylpiperazin-1-yl)phenyl)amino)pyrimidin-4-yl)amino)phenyl)acrylamide] | 1 to 10 | 1 to 10
11 | C=CC(=O)Nc1cc(F)ccc1Nc1nc(Nc2ccc(N3CCN(C)CC3)cc2)ncc1Cl [Compound 40, N-{2-[(5-chloro-2-{[4-(4-methylpiperazin-1-yl)phenyl]amino}pyrimidin-4-yl)amino]-5-fluorophenyl}prop-2-enamide] | 1 to 10 | 
12 | C=CC(=O)Nc1ccc(C)cc1Nc1nc(Nc2ccc(N3CCN(C)CC3)cc2)nc2ccsc12 [Compound 46, N-{4-methyl-2-[(2-{[4-(4-methylpiperazin-1-yl)phenyl]amino}thieno[3,2-d]pyrimidin-4-yl)amino]phenyl}prop-2-enamide] | 100 to 1000 | 10 to 100
13 | C=CC(=O)Nc1ccccc1Nc1nc(Nc2ccc(N3CCN(C)CC3)cc2)nc(N)c1Cl [Compound 13, N-{2-[(6-amino-5-chloro-2-{[4-(4-methylpiperazin-1-yl)phenyl]amino}pyrimidin-4-yl)amino]phenyl}prop-2-enamide] | 10 to 100 | 1 to 10
14 | C=CC(=O)Nc1ccccc1Nc1nc(Nc2ccc(N3CCN(C)CC3)cc2)ncc1-c1cccs1 [Compound 6, N-(2-((2-((4-(4-methylpiperazin-1-yl)phenyl)amino)-5-(thiophen-2-yl)pyrimidin-4-yl)amino)phenyl)acrylamide] | 1 to 10 | 1 to 10
15 | C=CC(=O)Nc1ccc(C)cc1Nc1nc(Nc2ccc(N3CCN(C)CC3)cc2)ncc1C(=O)Nc1c(C)cccc1Cl [Compound 35, N-(2-chloro-6-methylphenyl)-4-{[5-methyl-2-(prop-2-enamido)phenyl]amino}-2-{[4-(4-methylpiperazin-1-yl)phenyl]amino}pyrimidine-5-carboxamide] | 10 to 100 | 
16 | C=CC(=O)Nc1ccccc1Nc1nc(Nc2ccc(N3CCN(C)CC3)cc2)nc2ccsc12 [Compound 11, N-{2-[(2-{[4-(4-methylpiperazin-1-yl)phenyl]amino}thieno[3,2-d]pyrimidin-4-yl)amino]phenyl}prop-2-enamide] | 1 to 10 | 1 to 10
17 | C=CC(=O)Nc1ccccc1Nc1nc(Nc2ccc(N3CCN(C)CC3)cc2)ncc1C(=O)Nc1c(C)cc(C(=O)O)cc1Cl [Compound 30, 3-chloro-5-methyl-4-(2-{[4-(4-methylpiperazin-1-yl)phenyl]amino}-4-{[2-(prop-2-enamido)phenyl]amino}pyrimidine-5-amido)benzoic acid] | > 10000 | 
18 | C=CC(=O)Nc1ccccc1Nc1nc(Nc2ccc(N3CCN(C)CC3)cc2)ncc1C(=O)Nc1c(C)cccc1C [Compound 28, N-(2,6-dimethylphenyl)-2-{[4-(4-methylpiperazin-1-yl)phenyl]amino}-4-{[2-(prop-2-enamido)phenyl]amino}pyrimidine-5-carboxamide] | 1 to 10 | < 1
19 | C=CC(=O)Nc1ccccc1CNc1nc(Nc2ccc(N3CCN(C)CC3)cc2)ncc1C(=O)Nc1c(C)cccc1Cl [Compound 50] | 1 to 10 | 
20 | C=CC(=O)Nc1ccccc1Nc1nc(Nc2ccc(N3CCN(C)CC3)cc2)ncc1OCc1ccc(C)cc1 [Compound 15, N-(2-((5-((4-methylbenzyl)oxy)-2-((4-(4-methylpiperazin-1-yl)phenyl)amino)pyrimidin-4-yl)amino)phenyl)acrylamide] | 1 to 10 | 1 to 10
21 | C=CC(=O)Nc1ccc(C)cc1Nc1nc(Nc2ccc(N3CCN(C)CC3)cc2)nc2ccoc12 [Compound 47, N-{4-methyl-2-[(2-{[4-(4-methylpiperazin-1-yl)phenyl]amino}furo [3,2-d]pyrimidin-4-yl)amino]phenyl}prop-2-enamide] | 100 to 1000 | 10 to 100
22 | C=CC(=O)Nc1cccc(F)c1Nc1nc(Nc2ccc(N3CCN(C)CC3)cc2)ncc1C(=O)Nc1c(C)cccc1Cl [Compound 42, N-(2-chloro-6-methylphenyl)-4-{[2-fluoro-6-(prop-2-enamido)phenyl]amino}-2-{[4-(4-methylpiperazin-1-yl)phenyl]amino}pyrimidine-5-carboxamide] | 1 to 10 | < 1
23 | C=CC(=O)Nc1ccccc1Nc1nc(Nc2ccc(N3CCN(C)CC3)cc2)ncc1C(=O)NCc1ccc(Oc2ccccc2)cc1 [Compound 19, 2-{[4-(4-methylpiperazin-1-yl)phenyl]amino}-N-[(4-phenoxyphenyl)methyl]-4-{[2-(prop-2-enamido)phenyl]amino}pyrimidine-5-carboxamide] | > 10000 | > 10000
24 | C=CC(=O)Nc1ccccc1Nc1nc(Nc2ccc(N3CCN(C)CC3)cc2)ncc1Cl [SM1-71, reference compound] | 1 to 10 | 1 to 10
